From paper PMC11032351, “Epigenetic modulation through BET bromodomain inhibitors as a novel therapeutic strategy for progranulin-deficient frontotemporal dementia” (Scientific Reports, 2024)

Experiments:
PGRN protein levels [1] = assay: Immunoblotting of PGRN protein in 18-day differentiated neurons; format: cell-based, human; settings: 24 hours, immunoblot
Protocol: NPCs were seeded at 0.5 × 10^6 cells per well in a poly-ornithine/laminin single coated 6-well plate in 2 mL NPC media with above growth factors. Cells were allowed to incubate at 37 °C for 48–72 h to grow to confluency. After reaching confluency, the media was aspirated, and cells were incubated in NPC media without growth factors for the indicated timeframes, with media changes every 3–4 days.
All compounds were purchased from commercial vendors. All compounds were made at 1000 × stocks in DMSO (Sigma Aldrich #D2438), except for sodium valproate, which was dissolved in ddH2O. NPCs and neurons were generated and maintained as described above. […]
Cell pellets were collected from each well of a 6-well plate (or lysed directly in-well for 24-well plates), lysed in radio immunoprecipitation assay (RIPA) buffer (Boston BioProducts #BP-115) with EDTA-free protease inhibitors (Sigma Aldrich #4,693,159,001) and a phosphatase inhibitor cocktail (Sigma Aldrich #P5726) and nutated at 4 °C for 15–30 min. […] Protein quantification was done with the Pierce bicinchoninic assay (BCA) (Thermo Fisher #23,227). Lysates were then stored between − 20 and − 80 °C until ready for use. […]
(§1) In probing for PGRN, proteins were separated on NuPAGE 4–12% Bis–Tris gels (ThermoFisher #NP0335BOX) in MOPS SDS Running buffer (ThermoFisher #NP0001). […] Protein quantification was done with ImageJ and normalized to GAPDH.

PGRN protein levels [2] = assay: Immunoblotting of PGRN protein in human NPCs; format: cell-based; settings: 24 h, immunoblot
Protocol: (§2) All compounds were purchased from commercial vendors. All compounds were made at 1000 × stocks in DMSO (Sigma Aldrich #D2438), except for sodium valproate, which was dissolved in ddH2O. NPCs and neurons were generated and maintained as described above. For treatment, the stock compounds were diluted 1:1000 in NPC media (final DMSO concentration 0.1%), which was then applied to confluent NPCs or 18-day differentiated neurons derived from confluent NPC cultures for indicated time periods.
Cell pellets were collected from each well of a 6-well plate (or lysed directly in-well for 24-well plates), lysed in radio immunoprecipitation assay (RIPA) buffer (Boston BioProducts #BP-115) with EDTA-free protease inhibitors (Sigma Aldrich #4,693,159,001) and a phosphatase inhibitor cocktail (Sigma Aldrich #P5726) and nutated at 4 °C for 15–30 min. Lysates were clarified via centrifugation at > 14,000 rcf at 4 °C for > 10 min and the supernatants were collected. Protein quantification was done with the Pierce bicinchoninic assay (BCA) (Thermo Fisher #23,227). Lysates were then stored between − 20 and − 80 °C until ready for use. […]
as §1

GRN mRNA = assay: qPCR of GRN mRNA in human NPCs (enhancer screen and follow-up); format: cell-based; settings: 24 h; for increase of GRN mRNA: NPCs
Protocol: as §2
RNA was generated from each well of a 6-well treated plate of NPCs or neurons. First, media from each well was aspirated, and washed with 1 mL of dPBS. Wells were then lysed with 1 mL TRIzol Reagent (ThermoFisher #11,596,026). Wells were then incubated at room temperature for 5 min, and then RNA was extracted using the DirectZol RNA MiniPrep Kit (Zymo Research #R2052). RNA was stored at − 80 °C until further use. cDNA was generated using the High-Capacity cDNA synthesis Kit with RNase inhibitor (ThermoFisher #4,368,814) using 1000–1200 ng RNA per reaction. cDNA was either used immediately or stored at -20 °C until use, where it was then diluted 1:4 with DNase/RNase-free water (Invitrogen #10,977–015).
qPCR was conducted using the Roche 480 Light Cycler in a 384-well plate. To each well was added 5 μL of TaqMan 2X Gene Expression Master Mix (ThermoFisher #4,369,510), 0.5 μL of 20X TaqMan primer probe (ThermoFisher, GRN: Hs00963707_g1, GAPDH: Cat.#432924E), 0.5 μL of DNase/RNase-free H2O, and 4 μL of above diluted cDNA. Results were normalized to GAPDH, and replicate mean values and standard error of the mean are reported.

PGRN protein levels [3] = assay: PGRN quantification (Jess) in GRN R493X/+ 14-day differentiated neurons; format: cell-based, human; settings: GRN R493X/+ 14-day growth factor differentiated neurons, 24 h
Protocol: (§3) PGRN capillary gel electrophoresis experiments were performed using Jess (Bio-Techne) and data were processed and analyzed using Compass for Simple Western software (version 6.0). Runs were conducted using EZ Standard Pack 1 12–230 kDa (Bio-Techne PS-ST01EZ-8), 12–230 kDa pre-filled plates (PS-PP03), 12–230 kDa separation module (SMW004), anti-rabbit HRP detection (DM-001), RePlex (RP-001), and total protein detection modules (DM-TP01, biotin labeling reagent 042-973) according to the manufacturer’s instructions, and with anti-PGRN primary (Abcam ab208777) diluted 1:50 in milk-free antibody dilution buffer (043–524). The following run settings were used for each experiment: separation time: 25 min, separation voltage: 375 V, RePlex purge time: 30 min, biotin labeling time: 30 min, antibody diluent time: 5 min, primary antibody time: 30 min, secondary antibody time: 30 min, total protein HRP time: 30 min. All intensity quantifications are normalized to the total protein assay quantification unless otherwise indicated.
(§4) For GRN^R493^X/+ NPCs, cells were grown to confluency in 6-well plates according to the above NPC culturing procedure. To each well was directly added 2 µL of 100 µM panobinostat, […], or DMSO only to produce final in-well concentrations of 100 nM or 1 µM, respectively (0.1% DMSO final concentration). […]

PGRN-Luc = assay: HMC3 PGRN-luciferase reporter assay; format: cell-based, human; settings: HMC3 PGRN-Luc cells, 20 h
Protocol: HMC3 PGRN-Luc cells were trypsinized from confluent T-75 flasks and re-suspended in HMC-3 media at 150,000–200,000 cells/mL. 30 µL of cell suspension was then seeded onto each well of black, 384-well clear-bottom plates (Corning 3712) using the Multidrop Combi (Thermo Fisher). Cells were allowed to adhere to plates in the incubator at 37 °C/5% CO2 for 6–8 h. After 6–8 h, compounds were added to each well using the D300e (Tecan) compound dispenser, and all wells were DMSO-normalized (0.3%). Cells were allowed to incubate with compounds for indicated timeframes.
Plates were removed from the incubator and allowed to cool to RT. 15 µL of media was removed from each well using a multichannel pipette and added to separate Corning 3712 plates for a read of “secreted” PGRN. To both the media-containing plates as well as the cell-containing plates (with 15 µL media remaining) is then added 15 µL of active luminescence reagent (Thermo 18,636) which was generated according to manufacturer’s instructions. Plates were allowed to nutate at RT for 15 min prior to reading using the EnVision (PerkinElmer). For calculation of the internal PGRN-Luc signal, the secreted signal (15 µL media) was subtracted from the signal of the cell-containing plates (with 15 µL media remaining). For “total” PGRN-Luc signal, a sample of media was not aliquoted into a separate plate, and instead, 30 µL of active luminescence reagent was added directly to each well.
For the mivebresib and panobinostat time-course experiment, the above procedure was followed, with the exception that cells were seeded at 66,600 cells/mL in 30 µL media, and allowed to grow overnight prior to compound addition for the indicated timeframes.

PGRN protein levels [4] = assay: PGRN quantification (Jess) in GRN R493X/+ NPCs; format: cell-based, human; settings: 24 h
Protocol: as §3, §4

SMILES: COc1ccccc1S(=O)(=O)Nc1ccc2c(c1)CN(C)C(=O)N2 [PFI-1]
- PGRN expression (PGRN protein levels [1]; 10 µM): can enhance PGRN expression
- PGRN protein levels (PGRN protein levels [2]; 10 µM): substantially increased PGRN protein levels
- increase of GRN mRNA (GRN mRNA; 10 µM): ~ 2.5 fold

SMILES: Cc1[nH]c2ccccc2c1CCNCc1ccc(/C=C/C(=O)NO)cc1 [Panobinostat, panobinostat]
- PGRN protein levels (PGRN protein levels [3]): rescues PGRN haploinsufficiency
- enhancement of internal PGRN-Luc signal (PGRN-Luc): able to enhance both internal and secreted PGRN at sub-µM concentrations
- enhancement of secreted PGRN-Luc signal (PGRN-Luc): able to enhance both internal and secreted PGRN at sub-µM concentrations
- PGRN protein levels (PGRN protein levels [4]): rescues PGRN haploinsufficiency
- GRN Fold-change (Norm. to GAPDH) ± Std. Error (GRN mRNA; human NPCs, dose 1 µM, relative to DMSO): 3.08 ± 0.35

SMILES: Cc1sc2c(c1C)C(c1ccc(Cl)cc1)=N[C@@H](CC(=O)OC(C)(C)C)c1nnc(C)n1-2 [(+)-JQ1]
- PGRN expression (PGRN protein levels [1]; 1 µM): can enhance PGRN expression
- PGRN protein levels (PGRN protein levels [2]; 1 µM): substantially increased PGRN protein levels
- increase of GRN mRNA (GRN mRNA; 1 µM): ~ 2.5 fold
